Experimental data: PMC10174618, “Monoterpenoid aryl hydrocarbon receptor allosteric antagonists protect against ultraviolet skin damage in female mice” (Nature Communications, 2023)

Experiments:
Experiment in all cases: biochemical
Parameters in all cases: KINOMEscan scanMAX active site-directed competition binding assay, percent of control, 468 kinases
Settings in all cases: competition binding, percent of control
[1] = molecular target: T1, ERK5 (Homo sapiens, UniProt Q13164)
T1 construct: gene MAPK7
In short: (§1)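 Single-concentration screen (100 μM S-carvone) in a competition binding panel of 468 human kinases (KINOMEscan scanMAX); results given as percent of control, hit cutoff 35%.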

[2] = molecular target: T2, MRCKA (Homo sapiens, UniProt Q5VT25)
T2 construct: gene CDC42BPA
In short: as §1

[3] = molecular target: FGFR2 (Homo sapiens, UniProt P21802)
In short: as §1

[4] = molecular target: T3, ABL1(Q252H)-phosphorylated (Homo sapiens, UniProt P00519, Q252H)
T3 construct: phosphorylated
In short: as §1

[5] = molecular target: SLK (Homo sapiens, UniProt Q9H2G2)
In short: as §1

[6] = molecular target: T4, RSK4(Kin.Dom.1-N-terminal) (Homo sapiens, UniProt Q9UK32)
T4 construct: gene RPS6KA6; Kin.Dom.1-N-terminal
In short: as §1

[7] = molecular target: PIK3CA(E545A) (Homo sapiens, UniProt P42336, E545A)
In short: as §1

[8] = molecular target: STK16 (Homo sapiens, UniProt O75716)
In short: as §1

[9] = molecular target: T5, HPK1 (Homo sapiens, UniProt Q92918)
T5 construct: gene MAP4K1
In short: as §1

[10] = molecular target: PIM2 (Homo sapiens, UniProt Q9P1W9)
In short: as §1

[11] = molecular target: ABL2 (Homo sapiens, UniProt P42684)
In short: as §1

[12] = molecular target: T6, JAK2(JH1domain-catalytic) (Homo sapiens, UniProt O60674)
T6 construct: JH1domain-catalytic
In short: as §1

[13] = molecular target: CSNK1E (Homo sapiens, UniProt P49674)
In short: as §1

[14] = molecular target: T7, NIK (Homo sapiens, UniProt Q99558)
T7 construct: gene MAP3K14
In short: as §1

[15] = molecular target: RIOK3 (Homo sapiens, UniProt O14730)
In short: as §1

[16] = molecular target: ROCK2 (Homo sapiens, UniProt O75116)
In short: as §1

[17] = molecular target: CLK4 (Homo sapiens, UniProt Q9HAZ1)
In short: as §1

[18] = molecular target: T8, ABL1(F317I)-nonphosphorylated (Homo sapiens, UniProt P00519, F317I)
T8 construct: nonphosphorylated
In short: as §1

[19] = molecular target: MERTK (Homo sapiens, UniProt Q12866)
In short: as §1

[20] = molecular target: T9, PYK2 (Homo sapiens, UniProt Q14289)
T9 construct: gene PTK2B
In short: as §1

[21] = molecular target: CAMK2A (Homo sapiens, UniProt Q9UQM7)
In short: as §1

Chain of ROCK2 (O75116 whole entry): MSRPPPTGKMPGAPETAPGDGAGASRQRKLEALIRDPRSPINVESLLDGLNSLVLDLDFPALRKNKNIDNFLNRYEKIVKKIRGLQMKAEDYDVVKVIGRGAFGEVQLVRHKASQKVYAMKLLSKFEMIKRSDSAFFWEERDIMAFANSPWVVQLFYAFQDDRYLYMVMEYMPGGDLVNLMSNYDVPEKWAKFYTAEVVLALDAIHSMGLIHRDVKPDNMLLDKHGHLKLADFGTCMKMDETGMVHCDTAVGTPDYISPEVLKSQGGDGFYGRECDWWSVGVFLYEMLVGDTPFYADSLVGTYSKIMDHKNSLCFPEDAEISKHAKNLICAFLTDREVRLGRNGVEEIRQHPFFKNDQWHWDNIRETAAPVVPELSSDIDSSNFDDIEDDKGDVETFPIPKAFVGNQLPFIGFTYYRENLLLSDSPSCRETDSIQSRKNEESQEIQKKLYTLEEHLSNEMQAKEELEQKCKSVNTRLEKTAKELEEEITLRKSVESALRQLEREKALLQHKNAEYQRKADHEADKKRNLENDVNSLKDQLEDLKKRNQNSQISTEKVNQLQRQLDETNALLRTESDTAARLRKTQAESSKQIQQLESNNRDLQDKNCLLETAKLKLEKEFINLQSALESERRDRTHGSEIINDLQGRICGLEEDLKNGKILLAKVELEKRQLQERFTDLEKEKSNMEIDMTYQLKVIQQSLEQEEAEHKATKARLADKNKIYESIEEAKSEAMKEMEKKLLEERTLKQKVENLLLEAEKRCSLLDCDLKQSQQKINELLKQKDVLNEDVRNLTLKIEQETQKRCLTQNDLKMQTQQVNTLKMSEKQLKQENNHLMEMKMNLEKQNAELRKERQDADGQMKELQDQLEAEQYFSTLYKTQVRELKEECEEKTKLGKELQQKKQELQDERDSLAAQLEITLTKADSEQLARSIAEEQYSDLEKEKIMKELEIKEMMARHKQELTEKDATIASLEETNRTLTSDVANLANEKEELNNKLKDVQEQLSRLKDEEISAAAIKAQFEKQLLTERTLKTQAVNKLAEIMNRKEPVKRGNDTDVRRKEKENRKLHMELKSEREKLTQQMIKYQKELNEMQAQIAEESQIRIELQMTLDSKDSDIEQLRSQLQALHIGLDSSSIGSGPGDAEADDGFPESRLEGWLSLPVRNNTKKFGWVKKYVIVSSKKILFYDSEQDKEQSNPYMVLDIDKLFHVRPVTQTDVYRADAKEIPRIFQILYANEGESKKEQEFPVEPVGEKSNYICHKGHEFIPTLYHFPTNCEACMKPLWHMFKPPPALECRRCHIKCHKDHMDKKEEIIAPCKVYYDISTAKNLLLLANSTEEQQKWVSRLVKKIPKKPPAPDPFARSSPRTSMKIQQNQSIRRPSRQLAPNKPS
T1 sequence (Q13164 whole entry): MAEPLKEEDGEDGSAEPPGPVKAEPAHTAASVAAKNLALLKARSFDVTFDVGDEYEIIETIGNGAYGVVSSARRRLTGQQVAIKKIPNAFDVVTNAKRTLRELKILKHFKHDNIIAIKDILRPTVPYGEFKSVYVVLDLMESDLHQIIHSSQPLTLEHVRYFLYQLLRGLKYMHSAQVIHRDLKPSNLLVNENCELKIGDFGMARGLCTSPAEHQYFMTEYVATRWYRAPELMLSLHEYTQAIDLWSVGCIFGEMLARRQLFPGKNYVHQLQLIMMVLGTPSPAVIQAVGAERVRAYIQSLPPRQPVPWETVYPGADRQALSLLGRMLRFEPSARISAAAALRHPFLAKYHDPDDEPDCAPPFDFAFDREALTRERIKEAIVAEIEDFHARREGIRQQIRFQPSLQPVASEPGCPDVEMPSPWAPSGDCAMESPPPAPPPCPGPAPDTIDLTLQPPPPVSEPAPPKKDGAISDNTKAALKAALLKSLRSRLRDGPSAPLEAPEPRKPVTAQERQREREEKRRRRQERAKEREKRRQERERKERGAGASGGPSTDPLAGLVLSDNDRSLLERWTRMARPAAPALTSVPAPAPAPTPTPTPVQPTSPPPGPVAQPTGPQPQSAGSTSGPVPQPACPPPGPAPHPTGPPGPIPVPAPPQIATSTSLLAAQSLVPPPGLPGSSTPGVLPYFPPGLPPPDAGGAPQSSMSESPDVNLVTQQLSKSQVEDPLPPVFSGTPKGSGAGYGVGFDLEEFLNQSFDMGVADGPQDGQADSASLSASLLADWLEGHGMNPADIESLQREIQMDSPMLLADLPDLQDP
Chain of PIK3CA(E545A) (P42336 whole entry E545A): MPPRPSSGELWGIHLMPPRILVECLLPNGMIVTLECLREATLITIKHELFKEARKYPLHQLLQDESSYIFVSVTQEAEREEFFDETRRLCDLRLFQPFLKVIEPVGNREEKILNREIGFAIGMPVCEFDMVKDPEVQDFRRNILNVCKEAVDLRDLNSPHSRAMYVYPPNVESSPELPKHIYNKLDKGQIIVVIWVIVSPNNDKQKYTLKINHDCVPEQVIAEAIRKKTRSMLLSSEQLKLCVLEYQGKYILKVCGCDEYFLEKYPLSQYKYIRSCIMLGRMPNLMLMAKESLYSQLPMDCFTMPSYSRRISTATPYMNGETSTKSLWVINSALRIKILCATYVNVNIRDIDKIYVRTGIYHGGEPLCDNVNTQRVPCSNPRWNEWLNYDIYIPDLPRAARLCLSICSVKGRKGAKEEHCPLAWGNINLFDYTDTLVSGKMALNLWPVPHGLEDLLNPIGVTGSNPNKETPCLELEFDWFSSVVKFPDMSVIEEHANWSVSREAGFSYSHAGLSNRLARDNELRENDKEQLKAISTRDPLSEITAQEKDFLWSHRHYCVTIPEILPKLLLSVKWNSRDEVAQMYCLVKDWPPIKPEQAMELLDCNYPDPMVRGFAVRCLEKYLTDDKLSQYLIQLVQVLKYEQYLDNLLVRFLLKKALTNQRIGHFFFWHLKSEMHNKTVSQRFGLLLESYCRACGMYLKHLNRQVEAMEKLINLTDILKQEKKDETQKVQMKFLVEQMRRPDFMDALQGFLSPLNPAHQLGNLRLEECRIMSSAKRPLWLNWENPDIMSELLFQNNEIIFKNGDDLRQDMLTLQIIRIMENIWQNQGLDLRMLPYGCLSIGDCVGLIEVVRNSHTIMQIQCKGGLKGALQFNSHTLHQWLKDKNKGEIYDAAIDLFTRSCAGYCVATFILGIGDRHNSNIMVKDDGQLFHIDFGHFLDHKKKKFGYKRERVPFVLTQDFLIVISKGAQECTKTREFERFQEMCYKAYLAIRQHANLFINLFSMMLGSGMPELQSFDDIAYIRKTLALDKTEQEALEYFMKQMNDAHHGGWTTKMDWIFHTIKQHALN
Chain of PIM2 (Q9P1W9 whole entry): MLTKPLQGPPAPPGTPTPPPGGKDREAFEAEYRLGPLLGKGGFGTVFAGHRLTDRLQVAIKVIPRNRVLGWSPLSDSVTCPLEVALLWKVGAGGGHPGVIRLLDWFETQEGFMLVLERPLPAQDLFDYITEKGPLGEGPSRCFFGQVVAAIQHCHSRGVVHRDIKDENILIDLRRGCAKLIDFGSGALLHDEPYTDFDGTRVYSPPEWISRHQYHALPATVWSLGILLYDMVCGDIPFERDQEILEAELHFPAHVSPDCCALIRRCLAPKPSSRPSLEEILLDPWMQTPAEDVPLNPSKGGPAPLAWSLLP
Chain of STK16 (O75716 whole entry): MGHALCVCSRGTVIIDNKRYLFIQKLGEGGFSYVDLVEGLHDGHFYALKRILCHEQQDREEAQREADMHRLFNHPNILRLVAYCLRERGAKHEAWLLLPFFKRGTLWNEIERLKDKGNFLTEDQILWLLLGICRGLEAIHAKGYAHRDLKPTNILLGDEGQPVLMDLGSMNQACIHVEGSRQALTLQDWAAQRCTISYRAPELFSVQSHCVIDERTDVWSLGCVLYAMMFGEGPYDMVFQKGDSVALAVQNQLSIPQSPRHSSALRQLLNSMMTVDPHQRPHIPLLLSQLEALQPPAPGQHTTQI
T6 sequence (O60674 whole entry): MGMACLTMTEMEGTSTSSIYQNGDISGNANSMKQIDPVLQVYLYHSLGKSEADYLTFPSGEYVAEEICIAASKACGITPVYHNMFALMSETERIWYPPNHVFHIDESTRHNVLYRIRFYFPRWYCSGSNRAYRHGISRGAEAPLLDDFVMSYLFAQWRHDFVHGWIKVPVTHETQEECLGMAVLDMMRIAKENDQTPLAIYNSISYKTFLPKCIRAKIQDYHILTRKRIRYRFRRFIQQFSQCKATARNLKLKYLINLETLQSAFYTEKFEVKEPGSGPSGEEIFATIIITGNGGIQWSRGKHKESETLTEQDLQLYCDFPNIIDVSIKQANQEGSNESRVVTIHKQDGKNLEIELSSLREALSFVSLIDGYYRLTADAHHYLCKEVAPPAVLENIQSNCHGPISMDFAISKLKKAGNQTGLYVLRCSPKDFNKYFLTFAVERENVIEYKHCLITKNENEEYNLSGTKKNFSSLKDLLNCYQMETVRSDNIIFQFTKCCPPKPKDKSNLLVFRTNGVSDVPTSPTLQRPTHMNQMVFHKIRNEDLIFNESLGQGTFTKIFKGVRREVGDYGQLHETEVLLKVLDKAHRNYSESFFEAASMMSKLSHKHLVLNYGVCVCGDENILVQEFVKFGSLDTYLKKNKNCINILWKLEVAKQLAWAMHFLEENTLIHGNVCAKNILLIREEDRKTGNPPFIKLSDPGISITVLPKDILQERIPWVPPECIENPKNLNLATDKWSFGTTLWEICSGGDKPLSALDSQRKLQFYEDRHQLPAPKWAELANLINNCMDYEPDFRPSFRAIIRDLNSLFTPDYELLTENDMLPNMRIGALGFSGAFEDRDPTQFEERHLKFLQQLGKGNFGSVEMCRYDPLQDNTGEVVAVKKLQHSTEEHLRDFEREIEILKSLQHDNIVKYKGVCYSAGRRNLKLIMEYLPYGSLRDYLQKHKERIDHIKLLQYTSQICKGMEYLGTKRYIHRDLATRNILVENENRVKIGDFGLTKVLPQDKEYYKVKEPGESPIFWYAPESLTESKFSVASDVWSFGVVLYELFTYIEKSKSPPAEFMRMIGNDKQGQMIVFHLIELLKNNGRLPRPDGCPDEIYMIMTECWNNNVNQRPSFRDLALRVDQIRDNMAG

- remaining binding at 100 µM [1]: 93%
- remaining binding at 100 µM [2]: 80%
- remaining binding at 100 µM [3]: 80%
- remaining binding at 100 µM [4]: 55%
- remaining binding at 100 µM [5]: 78%
- remaining binding at 100 µM [6]: 63%
- remaining binding at 100 µM [7]: 70%
- remaining binding at 100 µM [8]: 90%
- remaining binding at 100 µM [9]: 80%
- remaining binding at 100 µM [10]: 86%
- remaining binding at 100 µM [11]: 85%
- remaining binding at 100 µM [12]: 78%
- remaining binding at 100 µM [13]: 90%
- remaining binding at 100 µM [14]: 84%
- remaining binding at 100 µM [15]: 89%
- remaining binding at 100 µM [16]: 66%
- remaining binding at 100 µM [17]: 91%
- remaining binding at 100 µM [18]: 64%
- remaining binding at 100 µM [19]: 90%
- remaining binding at 100 µM [20]: 80%
- remaining binding at 100 µM [21]: 79%
SMILES: C=C(C)[C@H]1CC=C(C)C(=O)C1 [S-carvone]
